From patent US20050131028A1, “Methods and compositions for the extended duration treatment of pain, inflammation and inflammation-related disorders” (Pharmacia Corporation, priority 2003, published 2005)
“And” between values parts separate entries of the source, which are not always exact repeats. Equal values may be shown once. Read-outs that look alike come from different tables or passages of the source.

How the values were obtained:
[1] = Rat pharmacokinetics, single oral dose, non-cassette; assay type: in vivo; conditions: for half-life: rat
Description: All rat pharmacokinetics data is non-cassette dosed. Non-cassette dosed pharmacokinetics means that each compound was dosed individually (i.e. not part of a cassette of compounds). Cassette-dosing is a technique in which 2 or more compounds are simultaneously administered to an animal and the pharmacokinetics of each compound is monitored individually even though it is in the same animal/blood sample.
At each sample collection time, blood samples were collected from three rats by cardiac puncture and then processed into plasma. […] Plasma drug concentrations were then determined by liquid chromatography-mass spectrometry methods. The mean plasma concentrations from each of the three samples collected at each time point were then plotted as a function of time. This process was repeated for each compound tested.

[2] = Canine pharmacokinetics, compounds dosed individually; assay type: in vivo, canines (beagles); conditions: beagle, dog, plasma, oral 2 or 4 mg/kg, read-out: Canine t1/2 (converted)
Description: In this example, each compound was administered individually to canines (not cassette dosed). […] Plasma drug concentrations were then determined by liquid chromatography-mass spectrometry methods. This process was repeated for each compound tested.

[3] = Canine cassette-dosed pharmacokinetics; assay type: in vivo, canines (beagles); conditions: for half-life: beagle, dog, plasma, 2 mg/kg; for increase in plasma half-life in canines: versus 4-methylphenyl compound
Description: Cassette-dosing is a technique in which 2 or more compounds are simultaneously administered to an animal and the pharmacokinetics of each compound is monitored individually even though it is in the same animal/blood sample.
Cassette-dosing refers to the practice of dosing 2 or more compounds simultaneously to animals. […] Blood samples were collected over time intervals ranging from 0 to 50 days into EDTA tubes and plasma harvested. Plasma drug concentrations were then determined for each compound in the cassette by liquid chromatography-mass spectrometry methods. This process was repeated for each group of compounds (cassette) tested.

hCOX-2 = molecular target: T1, hCOX-2 (Homo sapiens, UniProt P35354); assay: hCOX-2 enzyme inhibition (IC50) and selectivity; assay type: biochemical; conditions: for hCOX selectivity hCOX-1/hCOX-2: Cox-1 IC50/Cox-2 IC50; for IC50: repeated experimental results listed separately
T1 sequence (P35354 18-604): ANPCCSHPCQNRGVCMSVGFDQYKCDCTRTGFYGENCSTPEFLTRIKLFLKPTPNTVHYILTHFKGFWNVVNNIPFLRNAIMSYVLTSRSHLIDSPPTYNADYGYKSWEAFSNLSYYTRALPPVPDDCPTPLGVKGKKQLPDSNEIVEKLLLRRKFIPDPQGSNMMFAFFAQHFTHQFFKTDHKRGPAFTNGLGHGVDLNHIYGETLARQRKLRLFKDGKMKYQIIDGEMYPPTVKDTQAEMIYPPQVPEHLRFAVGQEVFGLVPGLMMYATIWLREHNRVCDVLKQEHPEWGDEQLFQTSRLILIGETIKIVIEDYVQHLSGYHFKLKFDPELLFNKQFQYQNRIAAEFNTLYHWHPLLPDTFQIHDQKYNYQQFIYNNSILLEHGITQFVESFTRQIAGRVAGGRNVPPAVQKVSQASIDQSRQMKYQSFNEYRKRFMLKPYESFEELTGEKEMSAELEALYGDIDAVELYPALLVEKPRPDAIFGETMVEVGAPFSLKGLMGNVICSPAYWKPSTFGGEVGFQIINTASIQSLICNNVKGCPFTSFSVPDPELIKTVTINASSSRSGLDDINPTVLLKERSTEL
Description: (§1) The specificity of a given extended duration Cox-2 inhibitor is measured by determining the IC50 or EC50 for each compound described above.

hCOX-1 = hCOX-1 (Homo sapiens, UniProt P23219); assay: hCOX-1 enzyme inhibition (IC50); assay type: biochemical; conditions: repeated experimental results listed separately
Chain of hCOX-1 (P23219 24-599): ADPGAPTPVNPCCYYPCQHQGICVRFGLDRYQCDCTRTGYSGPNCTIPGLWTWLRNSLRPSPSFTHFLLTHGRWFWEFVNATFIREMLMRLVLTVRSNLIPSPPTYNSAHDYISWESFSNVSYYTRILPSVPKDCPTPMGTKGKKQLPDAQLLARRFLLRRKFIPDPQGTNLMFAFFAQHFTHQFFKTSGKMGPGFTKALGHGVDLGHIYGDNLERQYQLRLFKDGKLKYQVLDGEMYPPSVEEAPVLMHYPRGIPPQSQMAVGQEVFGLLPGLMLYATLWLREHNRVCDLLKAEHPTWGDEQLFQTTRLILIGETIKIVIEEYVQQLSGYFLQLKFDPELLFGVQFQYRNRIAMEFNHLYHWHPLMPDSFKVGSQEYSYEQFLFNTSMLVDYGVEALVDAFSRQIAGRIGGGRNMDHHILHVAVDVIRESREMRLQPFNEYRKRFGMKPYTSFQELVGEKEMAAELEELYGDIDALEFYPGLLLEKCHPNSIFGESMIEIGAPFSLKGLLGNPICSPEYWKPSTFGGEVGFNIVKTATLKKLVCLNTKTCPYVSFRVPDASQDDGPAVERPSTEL
Description: as §1

[4] = system: adjuvant-induced arthritis in male Lewis rats; assay: Adjuvant-induced arthritis in rat paws (paw volume); assay type: in vivo; conditions: single oral dose, 3 mg/kg (FIG. 2) / 3 mg/mL, followed 28 days
Description: This experiment was performed following a modified method of Connor, J. et al. (European J. Pharmacology, 1995, 273:15-24). Briefly, arthritis was induced in pathogen-free, male Lewis rats by an intadermal injection of 20 mg/ml Mycobacterium butyricum suspended in squalene in three sites at the base of the tail. The injection of mycobacteria produces a systemic autoimmune response and subsequent chronic inflammation of the joints with many similarities to rheumatoid arthritis. The induced arthritis was allowed to develop for 14 days at which time animals were given a single oral dose of a Cox-2 selective inhibitor at […]. Effectiveness was assessed by the decrease in rat paw edema (paw volume) for 28 days following the Cox-2 inhibitor dose. Paw volume was determined using a water displacement plethysmometer. To gage the drug response, the paw volumes of rats treated with Cox-2 selective inhibitors were compared to normal healthy rats without induced arthritis and without drug (normal-control group) and rats with induced arthritis but without drug (adjuvant-control group).
All of the compounds tested in this model were effective for a minimum of 5 days.

[5] = cited from earlier work
[6] = plasma, po, 2 mg/kg, plasma, oral 2 mg/kg, non-cassette dosed, read-out: Rat t1/2 (converted)
[7] = po, oral 2 mg/kg each compound, cassette, read-out: Canine Cassette-dosed t1/2 (converted)

half-life [1, 6] | half-life [2] | half-life [3, 7] | Compound | IC50 (hCOX-2) | IC50 (hCOX-1) | also measured
97 h | 466 h | ~771 h | NS(=O)(=O)c1ccc(-n2nc(C(F)(F)F)cc2-c2ccc(Cl)cc2Cl)cc1 [4-[5-(2,4-[dichlorophenyl)-3-(trifluoromethyl)-1H-pyrazol-1-yl]benzenesulfonamide] | – | – | –
157 h | 762 h | ~830 h | NS(=O)(=O)c1ccc(-n2nc(C(F)(F)F)cc2-c2ccc(Cl)c(Cl)c2)cc1 [4-[5-(3,4-dichlorophenyl)-3-(trifluoromethyl)-1H-pyrazol-1-yl]benzenesulfonamide] | – | – | effectiveness in minimizing rat paw volume over longer time periods [4]: effective extended duration compounds
59 h | 500 h | ~881 h | NS(=O)(=O)c1ccc(-n2nc(C(F)(F)F)cc2-c2ccc(F)c(F)c2)cc1 [4-[5-(3,4-difluorophenyl)-3-(trifluoromethyl)-1H-pyrazol-1-yl]benzenesulfonamide] | – | – | –
– | – | ~17 h | COc1c(Cl)cc(-c2cc(C(F)(F)F)nn2-c2ccc(S(N)(=O)=O)cc2)cc1Cl [4-[5-(3,5-dichloro-4-methoxyphenyl)-3-(trifluoromethyl)-1H-pyrazol-1-yl]benzenesulfonamide] | 0.0547 µM and 0.039 µM | – | –
– | – | ~22 h | COc1ccc(-c2cc(C(F)(F)F)nn2-c2ccc(S(N)(=O)=O)cc2)cc1Cl [4-[5-(3-chloro-4-methoxyphenyl)-3-(trifluoromethyl)-1H-pyrazol-1-yl]benzenesulfonamide] | – | – | –
– | 12 h | ~44 h | Cc1cc(-c2cc(C(F)(F)F)nn2-c2ccc(S(N)(=O)=O)cc2)ccc1Cl [4-[5-(4-chloro-3-methylphenyl)-3-(trifluoromethyl)-1H-pyrazol-1-yl]benzenesulfonamide] | < 0.137 µM | 4.92 µM | –
193 h | – | ~1190 h | NS(=O)(=O)c1ccc(-n2nc(C(F)(F)F)cc2-c2ccc(Cl)cc2)cc1 [4-[5-(4-chlorophenyl)-3-(trifluoromethyl)-1H-pyrazol-1-yl]benzenesulfonamide] | – | – | half-life ([1]; plasma, oral, 2 mg/kg, single dosage administration, read-out: Rat half-life (converted)): 192 h; Rat half-life ([1]; single dosage administration): ≤ 190 h; half-life ([3]; oral, cassette-dosed, single dosage, read-out: canine half-life (converted)): ~1180 h; canine half-life ([3]; cassette-dosed, single dosage): ≤ 1180 h; increase in plasma half-life in canines ([3]; fast metabolizing subtype): 207 fold; increase in plasma half-life in canines ([3]; slow metabolizing subtype): 691 fold; duration of therapeutically effective blood concentration ([3]; without increased or additional dosing): at least 24 hours
32 h | 289 h | 572 h | NS(=O)(=O)c1ccc(-n2nc(C(F)(F)F)cc2-c2ccc(F)cc2)cc1 [4-[5-(4-fluorophenyl)-3-(trifluoromethyl)-1H-pyrazol-1-yl]benzenesulfonamide] | – | – | –
– | – | ~18 h | COc1c(C)cc(-c2cc(C(F)(F)F)nn2-c2ccc(S(N)(=O)=O)cc2)cc1C [4-[5-(4-methoxy-3,5-dimethylphenyl)-3-(trifluoromethyl)-1H-pyrazol-1-yl]benzenesulfonamide] | 0.08 µM | > 100 µM | –
– | – | ~36 h | COc1ccc(-c2cc(C(F)(F)F)nn2-c2ccc(S(N)(=O)=O)cc2)cc1C [4-[5-(4-methoxy-3-methylphenyl)-3-(trifluoromethyl)-1H-pyrazol-1-yl]benzenesulfonamide] | – | – | –
– | – | ~21 h | COc1ccc(-c2cc(C(F)(F)F)nn2-c2ccc(S(N)(=O)=O)cc2)cc1 [4-[5-(4-methoxyphenyl)-3-(trifluoromethyl)-1H-pyrazol-1-yl]benzenesulfonamide] | – | – | –
– | – | – | Cc1ccc(-c2cc(C(F)(F)F)nn2-c2ccc(S(N)(=O)=O)cc2)cc1 [4-[5-(4-methylphenyl)-3-(trifluoromethyl)-1H-pyrazol-1-yl]benzenesulfonamide] | – | – | Canine t1/2 ([5]; comparison data for the 4-methylphenyl compound): 1.72 to 5.18 h; effective half-life in canines ([5]; fast metabolizing subtype (so in the source)): 5.72 h; effective half-life in canines ([5]; slow metabolizing subtype (so in the source)): 1.72 h; half-life ([1]; female, in vivo, female rats, non-cassette dosed, comparison data, read-out: Rat t1/2 in Female (converted)): 14 h; half-life ([1]; male, in vivo, male rats, non-cassette dosed, comparison data, read-out: Rat t1/2 in Male (converted)): 3.73 h

Compound | half-life [1, 6] | half-life [2] | half-life [3, 7] | IC50 (hCOX-2) | IC50 (hCOX-1) | also measured
NS(=O)(=O)c1ccc(-n2nc(C(F)(F)F)cc2-c2ccc(F)cc2F)cc1 [4-[5-(2,4-[difluorophenyl)-3-(trifluoromethyl)-1H-pyrazol-1-yl]benzenesulfonamide] | 25 h | 233 h | ~716 h | 0.149 µM and 0.036 µM and < 0.137 µM | 38.4 µM and 14 µM and 22.4 µM | hCOX selectivity hCOX-1/hCOX-2 (hCOX-2): 393
Cc1ccc(-c2cc(C(F)(F)F)nn2-c2ccc(S(N)(=O)=O)cc2)cc1Cl [4-[5-(3-chloro-4-methylphenyl)-3-(trifluoromethyl)-1H-pyrazol-1-yl]benzenesulfonamide] | 5.1 h | – | 17 h | 0.0249 µM and < 0.137 µM and 0.007 µM | 57 µM and 12.5 µM and 14.3 µM | hCOX selectivity hCOX-1/hCOX-2 (hCOX-2): 2289
COc1cc(-c2cc(C(F)(F)F)nn2-c2ccc(S(N)(=O)=O)cc2)ccc1Br [4-[5-(4-bromo-3-methoxyphenyl)-3-(trifluoromethyl)-1H-pyrazol-1-yl]benzenesulfonamide] | – | 71 h | – | 0.0453 µM and < 0.137 µM | 30.3 µM and 35.3 µM | hCOX selectivity hCOX-1/hCOX-2 (hCOX-2): 669
